The values below are quoted from earlier work in US20050169997A1, “Method for preparing resinates” (priority 2002, published 2005).

Each structure is given as a SMILES string.

Regarding `COc1ccc2c(c1)c(CC(=O)O)c(C)n2C(=O)c1ccc(Cl)cc1` [indomethacin], the “solubility of indomethacin in water” value is reported as 14 ppm.
